Assay results: PubChem BioAssay (NCI)
Where “and” joins values, the source holds several entries; their conditions need not be identical. Equal values may be shown once.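 48-hour exposure; five concentrations; linearly interpolated endpoints. GI50: concentration for 50% inhibition of growth. TGI: total growth inhibition.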

Experiments:
Assay in all cases: NCI tumour cell line growth inhibition, 48 h
[1] = system: NCI-H226 lung
[2] = system: ACHN renal
[3] = system: OVCAR-4 ovarian
[4] = system: K-562 leukemia
[5] = system: SF-268 CNS
[6] = system: NCI-H522 lung
[7] = system: RPMI-8226 leukemia
[8] = system: HCT-116 colon
[9] = system: HCT-15 colon
[10] = system: RXF 393 renal

Compound | TGI [1] | TGI [2] | TGI [3] | TGI [4] | TGI [5] | TGI [6] | TGI [7] | TGI [8] | TGI [9] | TGI [10] | GI50 [1] | GI50 [2] | GI50 [3] | GI50 [4] | GI50 [5] | GI50 [6] | GI50 [7] | GI50 [8] | GI50 [9] | GI50 [10]
COc1ccc(C(C#N)NNc2nc(C)cc(=O)[nH]2)cc1OC (stereo not given) | > 100 µM | > 100 µM | > 100 µM | > 100 µM | > 100 µM | > 100 µM | > 100 µM | > 100 µM | > 100 µM | > 100 µM | – | – | – | – | – | – | – | – | – | –
COc1cc([C@@H]2c3cc4c(cc3[C@@H](NC(=O)c3ccccc3)C3COC(=O)[C@@H]32)OCO4)cc(OC)c1O (stereo not given in full) | 8.28 µM | 5.55 µM | > 100 µM | 33.8 µM | > 100 µM | 26.2 µM | 21.8 µM | 28.8 µM | > 100 µM | 74.4 µM | – | – | – | – | – | – | – | – | – | –
COc1ccc(O)c(C#N)c1C#N | > 100 µM | > 100 µM | > 100 µM | > 100 µM | > 100 µM | > 100 µM | > 100 µM | > 100 µM | > 100 µM | > 100 µM | – | – | – | – | – | – | – | – | – | –
CN(CCOc1ccc(C#N)cc1)CCOc1ccc(C#N)cc1 | > 100 µM | > 100 µM | > 100 µM | > 100 µM | > 100 µM | > 100 µM | > 100 µM | > 100 µM | > 100 µM | > 100 µM | > 100 µM | 41.5 µM | 67.5 µM | 16.7 µM | > 100 µM | 4.98 µM | 7.39 µM | 60.5 µM | 25.4 µM | 46.8 µM
CCCCN(Cc1ccc(F)cc1)c1ccc(CO)c(Cl)c1 | 0.318 µM | 29.7 µM | 13.6 µM | 29.6 µM | 36 µM | 30.1 µM | 36.3 µM | 13.2 µM | 28.5 µM | 21.1 µM | 0.146 µM | 15.4 µM | 2.54 µM | 6.76 µM | 19.3 µM | 15 µM | 10.1 µM | 0.906 µM | 13.4 µM | 7.16 µM
CC(=O)O[C@@H]1CC2C(C)(C)CCCC2(C)C2=C1C(=O)C(C(C)C)=CC2=O (stereo not given in full) | 2.09 µM | 1.96 µM | 6.58 µM | > 100 µM | 38.1 µM | 3.98 µM | 93.4 µM | 2.8 µM | 2.49 µM | 2.27 µM | 0.518 µM | 0.644 µM | 0.838 µM | 1.69 µM | 1.39 µM | 1.76 µM | 0.948 µM | 0.467 µM | 0.536 µM | 0.757 µM
CC(=O)c1cc([N+](=O)[O-])ccc1OCC(=O)O | > 100 µM | > 100 µM | > 100 µM | > 100 µM | > 100 µM | > 100 µM | > 100 µM | > 100 µM | > 100 µM | > 100 µM | – | – | – | – | – | – | – | – | – | –
CCOc1ccc(NCc2cc(OC)c(OC)c(OC)c2)cc1 | > 100 µM | > 100 µM | > 100 µM | > 63.1 µM | > 100 µM | 1.78 µM and 2.55 µM | 57 µM and > 74.6 µM | 48.2 µM and 46 µM | 45.9 µM and 32.7 µM | – | – | – | – | – | – | – | – | – | – | 2.24 µM
COc1cc(-c2cn(-c3ccc(Cl)cc3)c(C)c2C(=O)C(F)(F)F)cc(OC)c1OC | > 100 µM | > 100 µM | > 100 µM | > 100 µM | > 100 µM | > 100 µM | > 100 µM | > 100 µM | > 100 µM | > 100 µM | > 100 µM | > 100 µM | 25.5 µM | 22.7 µM | > 100 µM | 37 µM | 5.3 µM | 7.03 µM | > 100 µM | > 100 µM
CCCCCCCCCCCCCC(=O)CBr | 35.1 µM | 30.1 µM | 28.8 µM | 17.4 µM | 20 µM | 3.85 µM | 4.24 µM | 17 µM | 28.3 µM | 10.5 µM | – | – | – | – | – | – | – | – | – | –
Cc1cc2c3ccccc3n(C)c2c2c1C(=O)C=CC2=O | 42.5 µM | 41.7 µM | 18.7 µM | > 74 µM | 39.1 µM | 31.8 µM | 5.47 µM | 39.2 µM | 29.2 µM | 20.5 µM | – | – | – | – | – | – | – | – | – | –
